Measured values from ChEMBL document CHEMBL1122976, “Potential inhibitors of S-adenosylmethionine-dependent methyltransferases. 10. Base- and amino acid modified analogues of S-aristeromycinyl-L-homocysteine” (J Med Chem, 1985).

Experiments:
[1] = target: T1, Phenylethanolamine N-methyltransferase (Bos taurus, UniProt P10938); assay: Inhibition constant was evaluated against PNMT
T1 sequence (P10938 whole entry): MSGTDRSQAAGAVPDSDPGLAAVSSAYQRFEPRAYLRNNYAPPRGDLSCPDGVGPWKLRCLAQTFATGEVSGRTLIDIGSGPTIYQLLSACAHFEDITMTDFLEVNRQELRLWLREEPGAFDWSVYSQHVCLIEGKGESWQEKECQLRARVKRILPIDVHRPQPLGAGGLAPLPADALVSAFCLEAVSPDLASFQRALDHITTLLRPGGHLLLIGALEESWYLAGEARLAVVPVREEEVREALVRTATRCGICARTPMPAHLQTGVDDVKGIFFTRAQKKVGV

[2] = target: T2, Phenylethanolamine N-methyltransferase (Bos taurus) (UniProt P10938); assay: Inhibition of PNMT at 0.2 mM
T2 sequence (whole entry): T1 sequence (P10938 whole entry)

[3] = target: T2, Phenylethanolamine N-methyltransferase (Bos taurus); assay: Inhibition of PNMT at 2.0 mM
[4] = target: T3, Catechol O-methyltransferase (Rattus norvegicus) (UniProt P22734); assay: Inhibition of Catechol O-methyltransferase at 0.2 mM
T3 sequence (whole entry): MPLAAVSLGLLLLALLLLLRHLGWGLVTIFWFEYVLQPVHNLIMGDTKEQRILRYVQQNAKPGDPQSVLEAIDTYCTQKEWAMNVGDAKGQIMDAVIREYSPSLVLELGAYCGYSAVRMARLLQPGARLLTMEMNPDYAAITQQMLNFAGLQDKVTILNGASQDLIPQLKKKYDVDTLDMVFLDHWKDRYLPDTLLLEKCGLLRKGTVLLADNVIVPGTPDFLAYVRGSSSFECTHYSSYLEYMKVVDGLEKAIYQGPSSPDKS

[5] = target: T3, Catechol O-methyltransferase (Rattus norvegicus); assay: Inhibition of Catechol O-methyltransferase at 2.0 mM
[6] = target: Histamine N-methyltransferase (Cavia porcellus) (UniProt Q9EST2); assay: Inhibition of Histamine N-methyl-transferase at 0.2 mM
Histamine N-methyltransferase (Cavia porcellus), sequence (Q9EST2 whole entry): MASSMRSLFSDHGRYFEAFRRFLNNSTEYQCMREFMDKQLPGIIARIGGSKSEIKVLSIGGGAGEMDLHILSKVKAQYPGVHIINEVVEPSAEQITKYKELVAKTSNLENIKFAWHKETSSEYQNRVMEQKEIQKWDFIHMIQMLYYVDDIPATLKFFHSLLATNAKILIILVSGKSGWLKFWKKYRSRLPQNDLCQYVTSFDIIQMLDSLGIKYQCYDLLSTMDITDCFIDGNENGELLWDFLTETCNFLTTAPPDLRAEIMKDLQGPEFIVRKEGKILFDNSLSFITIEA

[7] = target: Histamine N-methyltransferase (Cavia porcellus) (UniProt Q9EST2); assay: Inhibition of Histamine N-methyl-transferase at 2.0 mM

Nc1ncnc2c1ncn2[C@@H]1O[C@H](CSCC[C@H](N)C(=O)O)[C@@H](O)[C@H]1O (stereo in doubt; 9) [S-ADENOSYLHOMOCYSTEINE]
Ki [1]: 62.3 µM

Nc1ncnc2c1ncn2[C@@H]1O[C@H](CSCC[C@H](N)C(=O)O)[C@@H](O)[C@H]1O (stereo in doubt; 5) [S-ADENOSYLHOMOCYSTEINE]
Ki [1]: 29 µM

Nc1ncnc2c1ncn2[C@@H]1O[C@H](C[S+]([O-])CCC(N)C(=O)O)[C@@H](O)[C@H]1O (some centres undefined)
inhibition [2]: 10%
inhibition [3]: 22%
inhibition [4]: 14%
inhibition [5]: 42%
inhibition [6]: 0%
inhibition [7]: 9%

CNc1ncnc2c1ncn2C1O[C@H](CSCCC(N)C(=O)O)[C@@H](O)[C@H]1O (some centres undefined)
inhibition [2]: 11%
inhibition [3]: 42%
inhibition [4]: 15%
inhibition [5]: 55%
inhibition [6]: 11%
inhibition [7]: 28%
